Data taken from patent US10718006B2, “Methods for detecting beta-lactamase-producing bacteria” (priority 2015, dated 2020).

Tests used:
Type in all cases: cell-based
C. freundii strain [1] = assay: β-Lacta Test (colorimetric, HMRZ-86), isolated colonies; parameters: key: Yellow or orange colour: negative result (absence of C3G-resistant strains); Orange: Yellow or orange colour: negative result (absence of C3G-resistant strains); Red colour: positive result (presence of C3G-resistant strains); conditions: C. freundii 11745, Inducible cephalosporinase, 30 min with HMRZ-86
Description: (§1) The electrochemical method of the invention was applied to analysis of a panel of 40 strains producing various β-lactamases and was compared with the R-Lacta™ Test (Biorad), the principle of which is based on qualitative colorimetric detection of the C3G-resistant strains. The results presented in Table 7 were obtained after 30 min of incubation of the bacteria with the substrate HMRZ-86 for both methods. Based on the interpretation of the results proposed by the supplier, the R-Lacta™ Test allows identification of the C3G-resistant strains with a level of agreement of 68%, whereas a level of agreement of 95% was obtained with the electrochemical method of the invention. In contrast to colorimetry, amperometry offers the advantage of measuring a numerical value of current which, on the one hand, avoids any subjective interpretation of the result (intermediate colour), and on the other hand allows traceability of the result.
(§2) Table 7: Comparison of the results obtained with the electrochemical method of the invention for liquid cultures with those obtained with the R-Lacta™ Test implemented according to the supplier's recommendations with isolated colonies. In both cases, the readings were taken after incubation with the substrate HMRZ-86 for 30 min.

P. aeruginosa strains [2] = assay: as above; parameters: key: Yellow or orange colour: negative result (absence of C3G-resistant strains); Orange: Yellow or orange colour: negative result (absence of C3G-resistant strains); Red colour: positive result (presence of C3G-resistant strains); conditions: 30 min with HMRZ-86
Description: as §1, §2

[3] = system: E. coli strains producing various β-lactamases; assay: as above; parameters: key: Yellow or orange colour: negative result (absence of C3G-resistant strains); Orange: Yellow or orange colour: negative result (absence of C3G-resistant strains); Red colour: positive result (presence of C3G-resistant strains)
Description: as §1, §2

E. cloacae strains = assay: Electrochemical assay with substrate HMRZ-86, liquid cultures; conditions: liquid culture, 30 min with HMRZ-86
Description: (§3) Each cryopreserved strain is cultured in 10 mL of LB medium at 37° C. until the stationary phase is obtained.
(§4) A volume of 50 μL of culture liquid is incubated in the presence of 50 μL of a solution of HMRZ-86 at 0.5 mM in PBS at 37° C. with stirring for 30 min. 40 μL of the reaction mixture is taken and transferred onto the surface of a screen-printed carbon sensor (Dropsens, DRP-110) connected beforehand to a STAT 8000P portable potentiostat (Dropsens) with power supply from the computer's USB port and controlled by the DropView 8400 software. Linear voltammetry measurements are carried out by linear potential scanning from −0.1 V to 1.2 V at a rate of 50 mV·s^−1. The peak current appearing in the potential range +0.2 to +0.55 V vs. Ag/AgCl, associated with hydrolysis of the beta-lactam ring of HMRZ-86, is selected as the analytical response. If the intensity of the peak (i) has a value above 500 nA, the sample contains a strain capable of degrading the C3Gs.
as §1, §2

K. pneumoniae strains = assay: as above; conditions: liquid culture, 30 min with HMRZ-86
Description: as §3, §4, §1, §2

S. marcescens strain = assay: as above; conditions: S. marcescens 11787, Hyperproduced cephalosporinase; liquid culture, 30 min with HMRZ-86
Description: as §3, §4, §1, §2

E. aerogenes strains = assay: as above; conditions: liquid culture, 30 min with HMRZ-86
Description: as §3, §4, §1, §2

K. oxytoca strain = assay: as above; conditions: K. oxytoca 11779, Low-level penicillinase; liquid culture, 30 min with HMRZ-86
Description: as §3, §4, §1, §2

C. freundii strain [4] = assay: as above; conditions: C. freundii 11745, Inducible cephalosporinase; liquid culture, 30 min with HMRZ-86
Description: as §3, §4, §1, §2

P. mirabilis strains = assay: as above; conditions: liquid culture, 30 min with HMRZ-86
Description: as §3, §4, §1, §2

P. aeruginosa strains [5] = assay: as above; conditions: liquid culture, 30 min with HMRZ-86
Description: as §3, §4, §1, §2

[6] = system: E. coli strains producing various β-lactamases; assay: as above; conditions: liquid culture, 30 min with HMRZ-86
Description: as §3, §4, §1, §2

[7] = P. aeruginosa 11774, Hyperproduced cephalosporinase
[8] = P. aeruginosa 11778, Hyperproduced cephalosporinase
[9] = P. aeruginosa 11782, Hyperproduced cephalosporinase

Compound: CC(C)(ON=C(C(=O)N[C@@H]1C(=O)N2C(C(=O)O)=C(C=Cc3ccc([N+](=O)[O-])cc3[N+](=O)[O-])CS[C@H]12)c1csc(N)n1)C(=O)O.O=C(O)C(F)(F)F [HMRZ-86, (6R,7R)-trifluoroacetate 7-[[2-(2-amino-4-thiazolyl)-2-[(1-carboxy-1-methylethoxy)imino]acetyl]amino]-1-aza-3-[2-(2,4-dinitrophenyl)ethenyl]-8-oxo-5-thiabicyclo[4.2.0]oct-2-ene-2-carboxylic acid]
- β-Lacta ™ Test Colour (C. freundii strain [1]): Yellow
- β-Lacta ™ Test Colour (P. aeruginosa strains [2]; [7]): Orange
- β-Lacta ™ Test Colour (P. aeruginosa strains [2]; [8]): Yellow
- β-Lacta ™ Test Colour (P. aeruginosa strains [2]; [9]): Yellow
- β-Lacta ™ Test Colour ([3]; E. coli 11746, Hyperproduced penicillinase, 30 min with HMRZ-86): Yellow
- β-Lacta ™ Test Colour ([3]; E. coli 11748, Inducible cephalosporinase, 30 min with HMRZ-86): Yellow
- β-Lacta ™ Test Colour ([3]; E. coli 11755, Carbapenemase OXA-48 - CTX-M, 30 min with HMRZ-86): Red
- β-Lacta ™ Test Colour ([3]; E. coli 11757, Carbapenemase OXA-48, 30 min with HMRZ-86): Orange
- β-Lacta ™ Test Colour ([3]; E. coli 11765, Hyperproduced penicillinase, 30 min with HMRZ-86): Yellow
- β-Lacta ™ Test Colour ([3]; E. coli 11766, Inducible cephalosporinase, 30 min with HMRZ-86): Yellow
- β-Lacta ™ Test Colour ([3]; E. coli 11771, Hyperproduced penicillinase, 30 min with HMRZ-86): Yellow
- β-Lacta ™ Test Colour ([3]; E. coli 11776, Inducible cephalosporinase, 30 min with HMRZ-86): Yellow
- β-Lacta ™ Test Colour ([3]; E. coli 11780, Hyperproduced penicillinase, 30 min with HMRZ-86): Yellow
- β-Lacta ™ Test Colour ([3]; E. coli 11781, Low-level penicillinase, 30 min with HMRZ-86): Yellow
- β-Lacta ™ Test Colour ([3]; E. coli 11791, Hyperproduced cephalosporinase, 30 min with HMRZ-86): Yellow
- β-Lacta ™ Test Colour ([3]; E. coli 11810, ESBL CTX-M-1, 30 min with HMRZ-86): Red
- β-Lacta ™ Test Colour ([3]; E. coli 11817, ESBL CTX-M-2, 30 min with HMRZ-86): Red
- β-Lacta ™ Test Colour ([3]; E. coli 11818, ESBL CTX-M-1, 30 min with HMRZ-86): Red
- β-Lacta ™ Test Colour ([3]; E. coli 11820, ESBL SHV-12, 30 min with HMRZ-86): Red
- β-Lacta ™ Test Colour ([3]; E. coli 11828, ESBL CTX-M-27, 30 min with HMRZ-86): Red
- β-Lacta ™ Test Colour ([3]; E. coli 11833, ESBL CTX-M-9, 30 min with HMRZ-86): Red
- β-Lacta ™ Test Colour ([3]; E. coli 11834, ESBL TEM-12, 30 min with HMRZ-86): Yellow
- β-Lacta ™ Test Colour ([3]; E. coli 11863, ESBL CTX-M-14, 30 min with HMRZ-86): Red
- β-Lacta ™ Test Colour ([3]; E. coli K12, Beta-lactamase negative, 30 min with HMRZ-86): Yellow
- Electrochemical assay Intensity (E. cloacae strains; E. cloacae 11784, Hyperproduced cephalosporinase): 569 nA
- Electrochemical assay Intensity (E. cloacae strains; E. cloacae 11790, Hyperproduced cephalosporinase): 686 nA
- Electrochemical assay Intensity (E. cloacae strains; E. cloacae 11794, Hyperproduced cephalosporinase): 842 nA
- Electrochemical assay Intensity (K. pneumoniae strains; K. pneumoniae 11754, Carbapenemase OXA-48 - CTX-M): 3520 nA
- Electrochemical assay Intensity (K. pneumoniae strains; K. pneumoniae 11762, Carbapenemase OXA-48): 476 nA
- Electrochemical assay Intensity (K. pneumoniae strains; K. pneumoniae 11770, Low-level penicillinase): 365 nA
- Electrochemical assay Intensity (K. pneumoniae strains; K. pneumoniae 11812, ESBL CTX-M-15): 3494 nA
- Electrochemical assay Intensity (K. pneumoniae strains; K. pneumoniae 11839, Carbapenemase KPC-2): 1567 nA
- Electrochemical assay Intensity (K. pneumoniae strains; K. pneumoniae 11842, Carbapenemase NDM-1): 1257 nA
- Electrochemical assay Intensity (S. marcescens strain): 3922 nA
- Electrochemical assay Intensity (E. aerogenes strains; E. aerogenes 11772, Inducible cephalosporinase): 362 nA
- Electrochemical assay Intensity (E. aerogenes strains; E. aerogenes 11775, Hyperproduced cephalosporinase): 501 nA
- Electrochemical assay Intensity (E. aerogenes strains; E. aerogenes 11796, ESBL TEM 24): 1249 nA
- Electrochemical assay Intensity (K. oxytoca strain): 412 nA
- Electrochemical assay Intensity (C. freundii strain [4]): 369 nA
- Electrochemical assay Intensity (P. mirabilis strains; P. mirabilis 11747, Beta-lactamase negative): 322 nA
- Electrochemical assay Intensity (P. mirabilis strains; P. mirabilis 11768, Low-level penicillinase): 233 nA
- Electrochemical assay Intensity (P. aeruginosa strains [5]; [7]): 2160 nA
- Electrochemical assay Intensity (P. aeruginosa strains [5]; [8]): 2278 nA
- Electrochemical assay Intensity (P. aeruginosa strains [5]; [9]): 1778 nA
- Electrochemical assay Intensity ([6]; E. coli 11746, Hyperproduced penicillinase): 380 nA
- Electrochemical assay Intensity ([6]; E. coli 11748, Inducible cephalosporinase): 424 nA
- Electrochemical assay Intensity ([6]; E. coli 11755, Carbapenemase OXA-48 - CTX-M): 3509 nA
- Electrochemical assay Intensity ([6]; E. coli 11757, Carbapenemase OXA-48): 625 nA
- Electrochemical assay Intensity ([6]; E. coli 11765, Hyperproduced penicillinase): 323 nA
- Electrochemical assay Intensity ([6]; E. coli 11766, Inducible cephalosporinase): 408 nA
- Electrochemical assay Intensity ([6]; E. coli 11776, Inducible cephalosporinase): 446 nA
- Electrochemical assay Intensity ([6]; E. coli 11780, Hyperproduced penicillinase): 425 nA
- Electrochemical assay Intensity ([6]; E. coli 11781, Low-level penicillinase): 377 nA
- Electrochemical assay Intensity ([6]; E. coli 11791, Hyperproduced cephalosporinase): 816 nA
- Electrochemical assay Intensity ([6]; E. coli 11810, ESBL CTX-M-1): 2544 nA
- Electrochemical assay Intensity ([6]; E. coli 11817, ESBL CTX-M-2): 1472 nA
- Electrochemical assay Intensity ([6]; E. coli 11818, ESBL CTX-M-1): 3583 nA
- Electrochemical assay Intensity ([6]; E. coli 11820, ESBL SHV-12): 1249 nA
- Electrochemical assay Intensity ([6]; E. coli 11828, ESBL CTX-M-27): 2640 nA
- Electrochemical assay Intensity ([6]; E. coli 11833, ESBL CTX-M-9): 2455 nA
- Electrochemical assay Intensity ([6]; E. coli 11834, ESBL TEM-12): 418 nA
- Electrochemical assay Intensity ([6]; E. coli 11863, ESBL CTX-M-14): 2544 nA
- Electrochemical assay Intensity ([6]; E. coli K12, Beta-lactamase negative): 302 nA
